Experimental data: ChEMBL document CHEMBL5029183 (J Med Chem, 2021)
Calls of active or inactive are those of the source.

What was measured:
Mus musculus [1] = assay: Chronic antinociceptive tolerance in Kunming mouse pretreated with compound followed by repeated compound addition at 10 micromol/kg, sc once daily for 7 days and measured after 20 mins by radiant heat paw withdrawal test; format: functional, organism-based; conditions: dose 10.0 µmol/kg, time 7.0 day
[2] = Toxicity in Kunming mouse assessed as inhibition of gastrointestinal transit at 10 micromol/kg, sc by charcoal meal test (reference value: 70.3 +/- 3 %); format: organism-based; set-up: scale not given: the % may be the effect or the level left; conditions: in vivo
Mus musculus [3] = assay: Chronic antinociceptive tolerance in Kunming mouse pretreated with compound followed by repeated compound addition at 20 nmol, icv once daily for 7 days and measured after 15 mins by radiant heat paw withdrawal test; format: functional, organism-based; conditions: time 7.0 day
[4] = Toxicity in Kunming mouse model assessed as conditioned place preference time at 20 nmol, icv; conditions: in vivo, icv_or_intrathecal
[5] = Toxicity in icv dosed Kunming mouse assessed as inhibition of gastrointestinal transit by measuring charcoal distance travel by charcoal meal test; format: organism-based; conditions: in vivo, icv_or_intrathecal, dose 0.67-6.7 nmol
[6] = Toxicity in Kunming mouse model assessed as conditioned place preference time at 10 micromol/kg, sc; conditions: in vivo, dose 10 µmol/kg
[7] = Toxicity in Kunming mouse assessed as effect on motor coordination at 20 nmol, icv by rotarod test; conditions: in vivo, icv_or_intrathecal
[8] = Toxicity in Kunming mouse assessed as effect on motor coordination at 10 micromol/kg, sc by rotarod test; format: organism-based; conditions: in vivo, dose 10 µmol/kg
Mus musculus [9] = assay: Antinociceptive activity in Kunming mouse model assessed as maximum possible effect at 10 micromol/kg, sc by radiant heat paw withdrawal assay; format: functional; conditions: dose 10 µmol/kg
Mus musculus [10] = assay: Antiallodynic activity in Kunming mouse model of spared nerve injury-induced neuropathic pain assessed as increase in paw withdrawal threshold at 10 micromol/kg, sc measured at 20 to 50 mins by von Frey test; format: functional, organism-based; conditions: dose 10.0 µmol/kg, time 20-50 min
Vas deferens = assay: Inhibition of electric-field induced mouse vas deferens contraction; format: functional, tissue-based
Mu-type opioid receptor [11] = target: Mu-type opioid receptor (Rattus norvegicus, UniProt P33535); assay: Displacement of [3H]DAMGO from MOR in Wistar rat brain membranes measured after 1 hr by scintillation counting method; format: cell membranes, Membrane
Mu-type opioid receptor [12] = target: T1, Mu-type opioid receptor (Homo sapiens, UniProt P35372); assay: Agonist activity at mu-opioid receptor (unknown origin) expressed in HEK293 cells assessed as inhibition of forskolin-induced cAMP accumulation incubated for 15 mins by ELISA; format: functional, cell-based
Rattus norvegicus [13] = species: Rattus norvegicus; assay: Selectivity index, ratio of Ki for displacement of [3H]DPDPE from DOR in Wistar rat brain membranes to Ki for displacement of [3H]DAMGO from MOR in Wistar rat brain membranes; format: cell membranes
[14] = target: Delta-type opioid receptor (Homo sapiens) (UniProt P41143); assay: Agonist activity at delta-opioid receptor (unknown origin) expressed in HEK293 cells assessed as inhibition of forskolin-induced cAMP accumulation incubated for 15 mins by ELISA; format: functional, cell-based
[15] = target: Kappa-type opioid receptor (Homo sapiens) (UniProt P41145); assay: Agonist activity at kappa-opioid receptor (unknown origin) expressed in HEK293 cells assessed as inhibition of forskolin-induced cAMP accumulation incubated for 15 mins by ELISA; format: functional, cell-based
Mu-type opioid receptor [16] = target: T1, Mu-type opioid receptor; assay: Agonist activity at mu-opioid receptor (unknown origin) expressed in HEK293 cells assessed as inhibition of forskolin-induced cAMP accumulation incubated for 15 mins by ELISA relative to control; format: functional, cell-based; conditions: filed as agonist
[17] = target: Delta-type opioid receptor (Rattus norvegicus, UniProt P33533); assay: Displacement of [3H]DPDPE from DOR in Wistar rat brain membranes measured after 3 hrs by scintillation counting method; format: cell membranes, Membrane
Rattus norvegicus [18] = species: Rattus norvegicus; assay: Selectivity index, ratio of Ki for displacement of [3H]-U69593 from KOR in Wistar rat brain membranes to Ki for displacement of [3H]DAMGO from MOR in Wistar rat brain membranes; format: cell membranes
[19] = Metabolic stability in Kunming mouse serum assessed as half life measured upto 480 mins by RP-HPLC analysis; format: ADME, cell-free
Ileum = assay: Inhibition of electric-field induced guinea pig ileum contraction; format: functional, tissue-based; conditions: Cavia porcellus
[20] = Metabolic stability in Kunming mouse brain assessed as half life measured upto 480 mins by RP-HPLC analysis; format: ADME, tissue-based
Mus musculus [21] = assay: Antinociceptive activity in Kunming mouse model assessed as increase in paw withdrawal latency at 0.67 to 20 nmol, icv by radiant heat paw withdrawal assay; format: functional, organism-based; conditions: dose 0.67-20 nmol, TDE = time-dependent effect
Mus musculus [22] = species: Mus musculus; assay: Antinociceptive tolerance in Kunming mouse pretreated with saline for 2 hrs followed by compound addition by radiant heat paw withdrawal test; format: functional
Mus musculus [23] = assay: Antinociceptive activity in icv dosed Kunming mouse model assessed as increase in paw withdrawal latency by radiant heat paw withdrawal assay; format: functional; conditions: dose 0.67-20 nmol
Mus musculus [24] = assay: Antinociceptive activity in Kunming mouse model assessed as increase in paw withdrawal latency at 20 nmol, icv pretreated for 30 mins with nor-BNI followed by compound addition and measured upto 10 mins by radiant heat paw withdrawal assay; format: functional, organism-based; conditions: time min <=10
Mus musculus [25] = species: Mus musculus; assay: Antinociceptive tolerance in Kunming mouse pretreated with 3 times ED50 of compound for 2 hrs followed by challenge with second dose of compound by radiant heat paw withdrawal test; format: functional
Mus musculus [26] = assay: Antinociceptive activity in Kunming mouse model assessed as increase in paw withdrawal latency at 0.67 to 20 nmol, icv measured after 5 mins by radiant heat paw withdrawal assay; format: functional, organism-based; conditions: dose 0.67-20 nmol
Mus musculus [27] = assay: Antinociceptive activity in Kunming mouse model assessed as increase in paw withdrawal latency at 20 nmol, icv pretreated for 4 hrs with beta-FNA followed by compound addition and measured upto 10 mins by radiant heat paw withdrawal assay; format: functional, organism-based; conditions: time min <=10
Mus musculus [28] = assay: Antinociceptive activity in Kunming mouse model assessed as increase in paw withdrawal latency at 10 micromol/kg, sc by radiant heat paw withdrawal assay; format: functional, organism-based; conditions: dose 10.0 µmol/kg
Mus musculus [29] = assay: Antinociceptive activity in Kunming mouse model assessed as increase in paw withdrawal latency at 20 nmol, icv pretreated for 20 mins with naloxonazine followed by compound addition and measured upto 10 mins by radiant heat paw withdrawal assay; format: functional, organism-based; conditions: time min <=10
Mus musculus [30] = assay: Antinociceptive activity in Kunming mouse model assessed as increase in paw withdrawal latency at 0.67 to 20 nmol, icv measured after 20 mins by radiant heat paw withdrawal assay; format: functional, organism-based; conditions: dose 0.67-20 nmol
Mus musculus [31] = assay: Chronic antinociceptive tolerance in Kunming mouse pretreated with compound followed by repeated compound addition at 20 nmol, icv once daily for 7 days and measured after 5 mins by radiant heat paw withdrawal test; format: functional, organism-based; conditions: time 7.0 day
Mus musculus [32] = assay: Antinociceptive activity in Kunming mouse model assessed as increase in paw withdrawal latency at 20 nmol, icv pretreated for 10 mins with naloxone followed by compound addition and measured upto 10 mins by radiant heat paw withdrawal assay; format: functional, organism-based; conditions: time min <=10

Chain of Delta-type opioid receptor (P33533 whole entry): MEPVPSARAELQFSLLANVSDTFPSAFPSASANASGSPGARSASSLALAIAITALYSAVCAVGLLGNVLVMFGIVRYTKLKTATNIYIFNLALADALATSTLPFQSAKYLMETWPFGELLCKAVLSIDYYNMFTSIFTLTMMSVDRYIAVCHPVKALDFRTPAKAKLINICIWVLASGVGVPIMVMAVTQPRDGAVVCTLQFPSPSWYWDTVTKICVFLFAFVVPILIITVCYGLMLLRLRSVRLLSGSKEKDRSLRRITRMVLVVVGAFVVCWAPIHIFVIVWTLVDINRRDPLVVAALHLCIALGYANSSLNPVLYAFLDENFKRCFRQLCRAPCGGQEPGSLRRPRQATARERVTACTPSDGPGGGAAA
T1 sequence (P35372 whole entry): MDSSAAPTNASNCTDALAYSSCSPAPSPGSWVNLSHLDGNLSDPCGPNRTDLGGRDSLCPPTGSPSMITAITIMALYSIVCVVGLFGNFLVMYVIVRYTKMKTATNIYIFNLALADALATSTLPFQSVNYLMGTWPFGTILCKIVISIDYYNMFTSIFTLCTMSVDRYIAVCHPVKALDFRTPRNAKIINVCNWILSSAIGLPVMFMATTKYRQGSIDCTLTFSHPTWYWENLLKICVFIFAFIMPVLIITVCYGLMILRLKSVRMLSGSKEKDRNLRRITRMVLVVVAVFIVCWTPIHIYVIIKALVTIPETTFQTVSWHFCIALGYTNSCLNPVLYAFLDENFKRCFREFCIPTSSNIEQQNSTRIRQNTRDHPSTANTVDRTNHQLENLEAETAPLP
Chain of Delta-type opioid receptor (Homo sapiens) (P41143 whole entry): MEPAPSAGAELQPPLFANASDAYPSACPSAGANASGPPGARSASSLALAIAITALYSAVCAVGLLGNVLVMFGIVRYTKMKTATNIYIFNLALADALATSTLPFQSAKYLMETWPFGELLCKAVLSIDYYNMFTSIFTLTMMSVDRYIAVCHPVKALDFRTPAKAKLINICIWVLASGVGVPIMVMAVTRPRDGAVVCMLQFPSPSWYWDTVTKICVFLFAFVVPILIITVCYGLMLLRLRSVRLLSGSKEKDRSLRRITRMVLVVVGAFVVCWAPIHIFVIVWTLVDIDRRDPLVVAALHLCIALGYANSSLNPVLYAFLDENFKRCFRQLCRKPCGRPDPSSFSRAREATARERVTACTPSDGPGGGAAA
Chain of Kappa-type opioid receptor (Homo sapiens) (P41145 whole entry): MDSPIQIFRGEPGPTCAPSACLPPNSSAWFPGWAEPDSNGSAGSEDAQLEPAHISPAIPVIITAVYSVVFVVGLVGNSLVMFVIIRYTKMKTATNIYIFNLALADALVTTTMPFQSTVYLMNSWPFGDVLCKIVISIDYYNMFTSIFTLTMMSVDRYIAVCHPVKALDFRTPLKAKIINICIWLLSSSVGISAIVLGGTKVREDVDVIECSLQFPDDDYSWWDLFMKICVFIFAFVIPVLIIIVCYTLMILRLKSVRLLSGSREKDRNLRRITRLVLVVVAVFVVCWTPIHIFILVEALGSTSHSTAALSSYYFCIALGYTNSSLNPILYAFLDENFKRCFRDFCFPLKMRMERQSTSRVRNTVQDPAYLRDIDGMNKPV
Chain of Mu-type opioid receptor (Rattus norvegicus, UniProt P33535) (P33535 whole entry): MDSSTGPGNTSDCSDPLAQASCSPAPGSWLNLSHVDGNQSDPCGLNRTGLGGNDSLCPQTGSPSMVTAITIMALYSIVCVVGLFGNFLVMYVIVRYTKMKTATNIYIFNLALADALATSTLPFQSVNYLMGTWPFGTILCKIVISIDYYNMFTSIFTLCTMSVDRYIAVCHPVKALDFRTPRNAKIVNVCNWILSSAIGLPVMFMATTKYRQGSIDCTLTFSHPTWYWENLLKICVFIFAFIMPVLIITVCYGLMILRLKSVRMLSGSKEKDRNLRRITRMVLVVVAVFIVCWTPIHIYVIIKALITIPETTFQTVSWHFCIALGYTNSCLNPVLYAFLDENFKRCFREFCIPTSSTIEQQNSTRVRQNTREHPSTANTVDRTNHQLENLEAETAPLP

Compound: CN1CC[C@]23c4c5ccc(O)c4O[C@H]2[C@@H](O)C=C[C@H]3[C@H]1C5 [MORPHINE]
- Activity (Mus musculus [1]): Active
- Activity ([2]; dose 10 µmol/kg): Toxic
- Activity (Mus musculus [3]): Active
- Time [4]: 451 s
- Activity [5]: Dose-Dependent Effect
- Time [6]: 447 s
- Activity [7]: Toxic
- Activity [8]: Toxic
- MPE (Mus musculus [9]): 41.05%
- Activity (Mus musculus [10]): Active

Compound: N=C(N)NCCC[C@@H](NC(=O)[C@@H](CCCNC(=N)N)NC(=O)CNC(=O)[C@@H]1CSSC[C@H](NC(=O)[C@@H](N)Cc2ccc(O)cc2)C(=O)N[C@@H](Cc2ccccc2)C(=O)N[C@@H](Cc2ccc(Cl)cc2)C(=O)N1)C(=O)O
- IC50 (Vas deferens): 139 nM
- Ki (Mu-type opioid receptor [11]): 67.2 nM
- EC50 (Mu-type opioid receptor [12]): 202 nM
- Ratio Ki (Rattus norvegicus [13]): > 149
- Activity [14]: inactive
- Activity [15]: inactive
- Emax (Mu-type opioid receptor [16]): 79.6%
- Ki [17]: > 10000 nM
- Ratio Ki (Rattus norvegicus [18]): > 149
- half-life [19]: 4.47 h
- IC50 (Ileum): 102 nM
- half-life [20]: 5.85 h

Compound: NC(=O)[C@H](Cc1ccccc1)NC(=O)[C@H](Cc1ccccc1)NC(=O)[C@@H]1CCCN1C(=O)[C@@H](N)Cc1ccc(O)cc1 [ENDOMORPHIN 2]
- Activity (Mus musculus [21]): Tde
- ED50 (Mus musculus [22]): 6.4 nmol
- IC50 (Vas deferens): 42.9 nM
- Activity (Mus musculus [23]): Dose-Dependent Effect
- ED50 (Mus musculus [23]): 6.4 nmol
- Activity (Mus musculus [24]): inactive
- ED50 (Mus musculus [25]): 20.6 nmol
- Activity ([2]; at 10 µmol/kg): 68.8%
- Time [4]: 449 s
- Activity (Mus musculus [26]): inactive
- Activity [5]: Dose-Dependent Effect
- Activity (Mus musculus [27]): inactive
- Activity (Mus musculus [28]): inactive
- Activity (Mus musculus [29]): inactive
- Time [6]: 445 s
- Activity (Mus musculus [30]): inactive
- Activity (Mus musculus [31]): Active
- half-life [19]: 0.148 h
- Activity (Mus musculus [32]): inactive
- IC50 (Ileum): 11.3 nM
- half-life [20]: 0.258 h

Compound: NC(=O)[C@H](Cc1ccccc1)NC(=O)[C@H](Cc1c[nH]c2ccccc12)NC(=O)[C@@H]1CCCN1C(=O)[C@@H](N)Cc1ccc(O)cc1 [ENDOMORPHIN-1]
- Activity (Mus musculus [21]): Tde
- IC50 (Vas deferens): 50.1 nM
- Activity (Mus musculus [23]): Dose-Dependent Effect
- Activity (Mus musculus [24]): Active
- Activity ([2]; at 10 µmol/kg): 68.1%
- Time [4]: 455 s
- Activity (Mus musculus [26]): inactive
- Activity [5]: Dose-Dependent Effect
- Activity (Mus musculus [27]): inactive
- Activity (Mus musculus [28]): inactive
- Activity (Mus musculus [29]): Active
- Time [6]: 451 s
- Activity (Mus musculus [30]): inactive
- Activity (Mus musculus [31]): Active
- Activity (Mus musculus [32]): inactive
- IC50 (Ileum): 8.73 nM

Compound: N=C(N)NCCC[C@@H](NC(=O)[C@@H](CCCNC(=N)N)NC(=O)CNC(=O)[C@@H]1CSSC[C@H](NC(=O)[C@@H](N)Cc2ccc(O)cc2)C(=O)N[C@@H](Cc2c[nH]c3ccccc23)C(=O)N[C@@H](Cc2ccccc2)C(=O)N1)C(=O)O
- IC50 (Vas deferens): 97.5 nM
- Ki (Mu-type opioid receptor [11]): 40.1 nM
- EC50 (Mu-type opioid receptor [12]): 160 nM
- Ratio Ki (Rattus norvegicus [13]): 249
- Activity [14]: inactive
- Activity [15]: inactive
- Emax (Mu-type opioid receptor [16]): 77.2%
- Ki [17]: > 10000 nM
- Ratio Ki (Rattus norvegicus [18]): > 249
- half-life [19]: 3.28 h
- IC50 (Ileum): 70.2 nM
- half-life [20]: 4.23 h

Compound: N=C(N)NCCC[C@@H](NC(=O)[C@@H](CCCNC(=N)N)NC(=O)CNC(=O)[C@@H]1CSSC[C@H](NC(=O)[C@@H](N)Cc2ccc(O)cc2)C(=O)N[C@@H](Cc2ccccc2)C(=O)N[C@@H](Cc2ccccc2)C(=O)N1)C(=O)O
- IC50 (Vas deferens): 108 nM
- Ki (Mu-type opioid receptor [11]): 45.3 nM
- EC50 (Mu-type opioid receptor [12]): 154 nM
- Ratio Ki (Rattus norvegicus [13]): 221
- Activity [14]: inactive
- Activity [15]: inactive
- Emax (Mu-type opioid receptor [16]): 79.7%
- Ki [17]: > 10000 nM
- Ratio Ki (Rattus norvegicus [18]): > 221
- half-life [19]: 3.6 h
- IC50 (Ileum): 74.6 nM
- half-life [20]: 4.12 h

Compound: N=C(N)NCCC[C@@H](NC(=O)[C@@H](CCCNC(=N)N)NC(=O)CNC(=O)[C@@H]1CSSC[C@H](NC(=O)[C@@H](N)Cc2ccc(O)cc2)C(=O)N[C@@H](Cc2c[nH]c3ccccc23)C(=O)N[C@@H](Cc2ccc(Cl)cc2)C(=O)N1)C(=O)O
- IC50 (Vas deferens): 138 nM
- Ki (Mu-type opioid receptor [11]): 68.9 nM
- EC50 (Mu-type opioid receptor [12]): 189 nM
- Ratio Ki (Rattus norvegicus [13]): > 145
- Activity [14]: inactive
- Activity [15]: inactive
- Emax (Mu-type opioid receptor [16]): 80.6%
- Ki [17]: > 10000 nM
- Ratio Ki (Rattus norvegicus [18]): > 145
- half-life [19]: 4.57 h
- IC50 (Ileum): 97.4 nM
- half-life [20]: 5.8 h
